Data reported in paper PMC5297413, “C-terminus Methionene Specifically Involved in Binding Corn Odorants to Odorant Binding Protein4 in Macrocentrus cingulum” (Frontiers in Physiology, 2017).
Entries after “also recorded” stand apart in the source; their conditions may differ.

Each molecule was assayed against T1, McinOBP4-Wt (Macrocentrus cingulum, UniProt A0A1S6PU99) (assay: Competitive binding assay with 1-NPN as fluorescent reporter, McinOBP4-Wt). Details: not given.
Protocol: (§1) One cm light path fluorimeter quartz cuvette was used on a FluoroMax-4 (Horiba Scientific, USA) spectrophotometer at room temperature for fluorescence spectra recording and excitation wavelength of 337 nm was chosen and 300–500 nm for the emission with a 5 nm slit width. Spectra were recorded with 2 μM McinOBP4 in 50 mM Tris-HCl of different pH value, while ligands were added as 1 mM methanol solutions.
The probe was excited at 337 nm and emission spectra were recorded between 300 and 500 nm.
(§2) It was assumed that McinOBP4 was 100% active and the protein-ligand binding was 1:1 ratio at saturation. The obtained data were processed with Graphpad Prism software (Graphpad Software, Inc.) and using a software package SPSS Version 16 (http://www.spss.com). The maximum intensity values of emission were plotted against the 1-NPN concentration for the KD determination, and the values of intensity were used for the evaluation the bound ligands. The curve was linearized using Scatchard Plots to verify the confidence of KD.

T1 sequence (A0A1S6PU99 entry or part of it): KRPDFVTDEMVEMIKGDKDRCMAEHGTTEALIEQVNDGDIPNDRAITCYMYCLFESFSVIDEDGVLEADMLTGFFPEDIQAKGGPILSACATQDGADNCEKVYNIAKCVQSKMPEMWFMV

| Molecule | IC50 [µM] | Kd [µM] |
| --- | --- | --- |
| CC/C=C\CCO [Cis-3-Hexen-1-ol] | 19.9 | 15.5 |
| C=CC(C)(O)CCC=C(C)C (centres unmarked) [Linalool] | 12.3 | 9.61 ± 0.23 |
| CCC/C=C/C=O [Trans-2-Hexen-1-al] | 16.4 | 12.8 |
| CCC/C=C/CO [Trans-2-Hexen-1-ol] | 19.8 | 15.4 |
| CC(=O)/C=C/C1C(C)=CCCC1(C)C (stereo not drawn) [α-Ionone] | 24.1 | 18.7 |
| CC1=CCC2CC1C2(C)C (stereo not drawn) [α-Pinene] | 34.2 | 26.6 |
| CC(=O)/C=C/C1=C(C)CCCC1(C)C [β-Ionone] | 15.1 | 11.8 |
| C=C1CCC2CC1C2(C)C (stereo not drawn) [β-Pinene] | 18.8 | 14.7 |

Same assay, conditions: McinOBP4-Wt, pH 7.4; read-out: KD

| Molecule | Kd [µM] |
| --- | --- |
| C=C(C)[C@H]1CC=C(C)CC1 [Limonene] | 4.12 ± 0.7 |
| CCCCC/C=C/C=O [Trans-2-Octenal] | 11.8 ± 0.57 |
| CC/C=C/CCOC(C)=O [Trans-3-Hexen-1-ol-Acetate] | 6.99 ± 1.23 |

Same assay, conditions: recombinant McinOBP4-Wt, pH = 7.4, calculated from IC50; read-out: KD

| Molecule | Kd [µM] |
| --- | --- |
| C=C(C)[C@H]1CC=C(C)CC1 [Limonene] | 4.12 |
| CCCCC/C=C/C=O [Trans-2-Octenal] | 11.9 |
| CC/C=C/CCOC(C)=O [Trans-3-Hexen-1-ol-Acetate] | 6.99 |
| Hexenal | 26.9 |

The next lines start with the values.

| Kd [µM] | Molecule |
| --- | --- |
| 19.1 | C=C1CC/C=C(\C)CC[C@@H]2[C@@H]1CC2(C)C (relative stereo) [Trans Caryophelle] |
| 19.8 | C=CC(O)CC (centres unmarked) [1-Penten-3-ol] |
| 36.6 | CCCCC(C)CC(C)C (centres unmarked) [2,4 Dimethyl Octane] |
| 15.7 | CCCCCc1ccco1 [2-Pentylfuran] |
| 21.3 | C=C/C(C)=C/C/C=C(\C)CCC=C(C)C [Farnsene] |
| 13 | CCCCCCC=O [Heptanal] |
| 17.9 | C=CC(=C)CCC=C(C)C [Myrcene] |
| 12.5 | CCCCCCCCC=O [Nonanal] |
| 12.8 | CCCCCC/C=C/C=O [Trans-2-Nonenal] |

Same assay, conditions: recombinant McinOBP4-Wt, pH = 7.4, displacement of 1-NPN; read-out: IC50

| Molecule | IC50 [µM] |
| --- | --- |
| C=C(C)[C@H]1CC=C(C)CC1 [Limonene] | 5.29 |
| CCCCC/C=C/C=O [Trans-2-Octenal] | 15.3 |
| CC/C=C/CCOC(C)=O [Trans-3-Hexen-1-ol-Acetate] | 8.98 |
| Hexenal | 34.6 |

Second part, the molecule after the results:

| IC50 [µM] | Molecule |
| --- | --- |
| 24.5 | C=C1CC/C=C(\C)CC[C@@H]2[C@@H]1CC2(C)C (relative stereo) [Trans Caryophelle] |
| 25.4 | C=CC(O)CC (centres unmarked) [1-Penten-3-ol] |
| 47 | CCCCC(C)CC(C)C (centres unmarked) [2,4 Dimethyl Octane] |
| 20.1 | CCCCCc1ccco1 [2-Pentylfuran] |
| 27.4 | C=C/C(C)=C/C/C=C(\C)CCC=C(C)C [Farnsene] |
| 16.8 | CCCCCCC=O [Heptanal] |
| 23 | C=CC(=C)CCC=C(C)C [Myrcene] |
| 16.1 | CCCCCCCCC=O [Nonanal] |
| 16.5 | CCCCCC/C=C/C=O [Trans-2-Nonenal] |

The molecules below were run against T1, McinOBP4-Wt (assay: Fluorescence binding of 1-NPN to McinOBP4-Wt). Details: acidic condition (pH 4.4).
Protocol: as §1
To measure the affinity of the fluorescence ligand N-phenyl-1-naphthylamine (1-NPN) to McinOBP4-wt and mutants, a 2 μM solution of the protein in 50 mM Tris-HCl, pH 7.4, was titrated with aliquots of 1 mM ligand in high-performance liquid chromatography (HPLC) purity grade methanol to final concentrations of 2–20 μM. The probe was excited at 337 nm and emission spectra were recorded between 300 and 500 nm. While the other competitor were measured in competitive binding assays, where 1-NPN using as the fluorescent reporter at 2 μM concentration and each competitor (odorants) over concentration ranges 2–14 μM, depending on the different odorants.
as §2, with “KD. IC50 for other corn odorants were calculated using with Microsoft excel 2010, and the equation, KD = [IC50]/[1+(1–NPN)/K1−NPN] was used for the KD values calculation. In this equation [IC50] stands for the ligand concentration where the ligand quenching the fluorescence intensity of 1-NPN to 50%, [1-NPN] and K1−NPN mean free 1-NPN concentration and McinOBP4/1-NPN complex KD values, respectively (Campanacci et al., [2001]; Ban et al., [2002]).” for “KD.”

| Molecule | Affinity of 1-NPN in acidic condition |
| --- | --- |
| c1ccc(Nc2cccc3ccccc23)cc1 [1-NPN, N-phenyl-1-naphthylamine] | did not observe significant loss of binding activity |

Same assay, conditions: basic condition

| Molecule | Affinity of 1-NPN in basic condition |
| --- | --- |
| c1ccc(Nc2cccc3ccccc23)cc1 [1-NPN, N-phenyl-1-naphthylamine] | increase in basic condition; also recorded: increase in affinity |

Same assay, conditions: pH 7.4, read-out: Dissociation constant (KD) of 1-NPN

| Molecule | Kd [µM] |
| --- | --- |
| c1ccc(Nc2cccc3ccccc23)cc1 [1-NPN, N-phenyl-1-naphthylamine] | 5.69 ± 0.83 |

The molecules below were run against T2, McinOBP4-M2 (Macrocentrus cingulum, UniProt A0A1S6PU99, M141L) (assay: Competitive binding assay with 1-NPN as fluorescent reporter, McinOBP4-M2). Details: compared to wild type and M1.
T2 sequence (A0A1S6PU99 23-142 M141L): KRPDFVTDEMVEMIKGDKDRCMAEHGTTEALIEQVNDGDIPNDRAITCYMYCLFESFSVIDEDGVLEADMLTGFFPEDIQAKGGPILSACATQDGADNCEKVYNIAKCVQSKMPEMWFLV

| Molecule | Binding affinity to McinOBP4-M2 compared to wild type and first mutant |
| --- | --- |
| C=C(C)[C@H]1CC=C(C)CC1 [Limonene] | lower binding affinities; also recorded: much weaker |
| C=CC(C)(O)CCC=C(C)C (centres unmarked) [Linalool] | lower binding affinities; also recorded: much weaker |
| CC/C=C/CCOC(C)=O [Trans-3-Hexen-1-ol-Acetate] | lower binding affinities; also recorded: much weaker |
| CC(=O)/C=C/C1=C(C)CCCC1(C)C [β-Ionone] | lower binding affinities; also recorded: much weaker |

Same assay, conditions: compared to wild type and M1; listed as trans-2-octanal

| Molecule | Binding affinity to McinOBP4-M2 compared to wild type and first mutant |
| --- | --- |
| CCCCC/C=C/C=O [Trans-2-Octenal] | lower binding affinities; also recorded: much weaker |

Each molecule was assayed against T2, McinOBP4-M2 (assay: Fluorescence binding of 1-NPN to mutant McinOBP4-M2 (Met119 replaced by Leu)). Details: McinOBP4-M2, pH 7.4; read-out: Dissociation constant (KD) of 1-NPN.
Protocol: (§3) The C-terminal tail truncated form of the McinOBP4 was obtained by removing the last 8 amino acids and inserting a stop codon after Leu112. The McinOBP4-Wt/pGEM-T Easy construct was used as a template. A pair of primer was designed manually and as listed sense primer 5′- […] -3′ (underlined with BamHI) and antisense primer, 5′- […] -3′ (underlined with HindIII) where 113th position residues used as a stop codon. The mutant M2 (Met119) was prepared along with the pair of primer as sense primer 5′- […] -3′ (under lined with BamHI), and antisense primere 5′- […] -3′ (under lined with HindIII). […]
as §1, with “solutions. […]” for “solutions.”
(§4) It was assumed that McinOBP4 was 100% active and the protein-ligand binding was 1:1 ratio at saturation. […] IC50 for other corn odorants were calculated using with Microsoft excel 2010, and the equation, KD = [IC50]/[1+(1–NPN)/K1−NPN] was used for the KD values calculation. […]

| Molecule | Kd [µM] |
| --- | --- |
| c1ccc(Nc2cccc3ccccc23)cc1 [1-NPN, N-phenyl-1-naphthylamine] | 8.85 ± 0.63 |

What follows are molecules tested against T3, McinOBP4-M1 (Macrocentrus cingulum, UniProt A0A1S6PU99) (assay: Fluorescence binding of 1-NPN to C-terminal truncated mutant McinOBP4-M1). Details: McinOBP4-M1, basic condition.
T3 sequence (A0A1S6PU99 23-134): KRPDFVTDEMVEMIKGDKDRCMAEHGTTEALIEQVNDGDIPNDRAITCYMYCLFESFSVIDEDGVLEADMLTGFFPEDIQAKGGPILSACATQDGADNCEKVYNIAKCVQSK
Protocol: as §3
as §1, with “solutions. […]” for “solutions.”
as §4

| Molecule | Affinity of 1-NPN in basic condition |
| --- | --- |
| c1ccc(Nc2cccc3ccccc23)cc1 [1-NPN, N-phenyl-1-naphthylamine] | increase in basic condition; also recorded: increase in affinity |

Same assay, conditions: McinOBP4-M1, pH 7.4; read-out: Dissociation constant (KD) of 1-NPN

| Molecule | Kd [µM] |
| --- | --- |
| c1ccc(Nc2cccc3ccccc23)cc1 [1-NPN, N-phenyl-1-naphthylamine] | 6.99 ± 0.59 |
